Literature values, collected in patent publication US20170245500A1 (priority 2014, published 2017).

Settings: some conditions, e.g. high temperature or higher soil pH

## CCOP(=O)(SC(C)CC)N1CCSC1=O (stereo not shown) [fosthiazate]
  time in which the pesticide can be degraded in soil: under ten
